PMC9841523 (Journal of Medicinal Chemistry, 2022)

Legend:
hERG potassium channel = hERG potassium channel (Homo sapiens, UniProt Q12809); assay: Eurofins Safety Screen 44; conditions: probe [3H] Dofetilide
[1] = target: T1, kappa (h) (KOP) (agonist radioligand) (Homo sapiens, UniProt P41145); assay: Eurofins Safety Screen 44; assay type: binding; conditions: read-out: % Inhibition of Control Values
T1 construct: purchased ActivX Biosciences (KiNativ)

Lck kinase (h) = target: T2, Lck kinase (h) (Homo sapiens, UniProt P06239); assay: Eurofins Safety Screen 44; assay type: biochemical; conditions: read-out: % Inhibition of Control Values
T2 construct: Eurofins (ran the panel)
T2 sequence (P06239 whole entry): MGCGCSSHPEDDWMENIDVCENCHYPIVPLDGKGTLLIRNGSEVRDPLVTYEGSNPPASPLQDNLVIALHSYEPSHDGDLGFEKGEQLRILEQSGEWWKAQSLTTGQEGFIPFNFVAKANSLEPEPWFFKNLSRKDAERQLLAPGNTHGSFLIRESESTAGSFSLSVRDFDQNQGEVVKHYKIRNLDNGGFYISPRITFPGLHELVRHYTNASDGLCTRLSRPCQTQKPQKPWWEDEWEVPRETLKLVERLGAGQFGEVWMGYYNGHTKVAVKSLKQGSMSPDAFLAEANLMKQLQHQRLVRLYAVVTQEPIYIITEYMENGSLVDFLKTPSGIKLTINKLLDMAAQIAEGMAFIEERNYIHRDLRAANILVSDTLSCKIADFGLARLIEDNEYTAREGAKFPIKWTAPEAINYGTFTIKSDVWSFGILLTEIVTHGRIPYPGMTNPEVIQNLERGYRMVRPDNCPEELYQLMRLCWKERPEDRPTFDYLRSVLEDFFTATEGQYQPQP

[2] = target: T3, 5-HT transporter (h) (antagonist radioligand) (Homo sapiens, UniProt P31645); assay: Eurofins Safety Screen 44; assay type: binding; conditions: read-out: % Inhibition of Control Values
T3 construct: Eurofins (ran the panel)

[3] = target: T4, norepinephrine transporter(h) (antagonist radioligand) (Homo sapiens, UniProt P23975); assay: Eurofins Safety Screen 44; assay type: binding; conditions: read-out: % Inhibition of Control Values
T4 construct: purchased ActivX Biosciences (KiNativ)
T4 sequence (P23975 whole entry): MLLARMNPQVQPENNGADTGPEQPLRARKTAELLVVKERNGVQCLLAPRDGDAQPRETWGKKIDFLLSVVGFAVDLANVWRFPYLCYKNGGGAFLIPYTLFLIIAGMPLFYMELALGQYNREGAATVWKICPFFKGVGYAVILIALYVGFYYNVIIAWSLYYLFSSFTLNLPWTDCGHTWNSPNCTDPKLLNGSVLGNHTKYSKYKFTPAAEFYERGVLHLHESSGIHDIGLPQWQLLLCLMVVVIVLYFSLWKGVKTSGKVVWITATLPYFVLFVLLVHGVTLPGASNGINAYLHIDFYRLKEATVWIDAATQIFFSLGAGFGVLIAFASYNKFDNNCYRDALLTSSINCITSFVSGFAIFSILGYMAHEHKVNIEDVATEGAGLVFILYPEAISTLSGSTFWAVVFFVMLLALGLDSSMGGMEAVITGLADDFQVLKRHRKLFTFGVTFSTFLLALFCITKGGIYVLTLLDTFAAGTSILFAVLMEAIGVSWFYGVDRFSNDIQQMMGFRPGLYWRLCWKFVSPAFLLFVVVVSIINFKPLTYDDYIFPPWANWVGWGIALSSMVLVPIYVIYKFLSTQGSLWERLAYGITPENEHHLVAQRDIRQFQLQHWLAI

[4] = target: T5, 5-HT2A(h) (agonist radioligand) (Homo sapiens, UniProt P28223); assay: Eurofins Safety Screen 44; assay type: binding; conditions: read-out: % Inhibition of Control Values
T5 construct: purchased ActivX Biosciences (KiNativ)

[5] = target: T6, dopamine transporter(h) (antagonist radioligand) (Homo sapiens, UniProt Q01959); assay: Eurofins Safety Screen 44; assay type: binding; conditions: read-out: % Inhibition of Control Values
T6 construct: Eurofins (ran the panel)
T6 sequence (Q01959 whole entry): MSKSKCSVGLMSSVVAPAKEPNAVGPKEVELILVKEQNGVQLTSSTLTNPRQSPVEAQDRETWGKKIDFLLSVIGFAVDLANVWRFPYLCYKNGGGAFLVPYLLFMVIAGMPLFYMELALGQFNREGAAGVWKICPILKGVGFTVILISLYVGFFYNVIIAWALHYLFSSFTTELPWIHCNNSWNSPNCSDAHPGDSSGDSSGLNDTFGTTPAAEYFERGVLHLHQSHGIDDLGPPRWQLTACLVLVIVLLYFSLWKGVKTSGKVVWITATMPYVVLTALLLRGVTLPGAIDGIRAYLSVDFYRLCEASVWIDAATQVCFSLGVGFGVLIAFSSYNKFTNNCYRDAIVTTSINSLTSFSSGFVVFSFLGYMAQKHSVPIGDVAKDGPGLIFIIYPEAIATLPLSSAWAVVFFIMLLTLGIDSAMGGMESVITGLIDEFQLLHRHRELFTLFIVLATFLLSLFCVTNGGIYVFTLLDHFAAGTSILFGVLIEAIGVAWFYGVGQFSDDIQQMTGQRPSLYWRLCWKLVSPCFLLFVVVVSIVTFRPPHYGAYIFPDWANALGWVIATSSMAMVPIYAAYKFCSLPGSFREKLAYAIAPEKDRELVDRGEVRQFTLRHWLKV

[6] = target: T7, β1(h) (agonist radioligand) (Homo sapiens, UniProt P08588); assay: Eurofins Safety Screen 44; assay type: binding; conditions: read-out: % Inhibition of Control Values
T7 construct: purchased ActivX Biosciences (KiNativ)

[7] = target: T8, M2 (h) (antagonist radioligand) (Homo sapiens, UniProt P08172); assay: Eurofins Safety Screen 44; assay type: binding; conditions: read-out: % Inhibition of Control Values
T8 construct: purchased ActivX Biosciences (KiNativ)
T8 sequence (P08172 whole entry): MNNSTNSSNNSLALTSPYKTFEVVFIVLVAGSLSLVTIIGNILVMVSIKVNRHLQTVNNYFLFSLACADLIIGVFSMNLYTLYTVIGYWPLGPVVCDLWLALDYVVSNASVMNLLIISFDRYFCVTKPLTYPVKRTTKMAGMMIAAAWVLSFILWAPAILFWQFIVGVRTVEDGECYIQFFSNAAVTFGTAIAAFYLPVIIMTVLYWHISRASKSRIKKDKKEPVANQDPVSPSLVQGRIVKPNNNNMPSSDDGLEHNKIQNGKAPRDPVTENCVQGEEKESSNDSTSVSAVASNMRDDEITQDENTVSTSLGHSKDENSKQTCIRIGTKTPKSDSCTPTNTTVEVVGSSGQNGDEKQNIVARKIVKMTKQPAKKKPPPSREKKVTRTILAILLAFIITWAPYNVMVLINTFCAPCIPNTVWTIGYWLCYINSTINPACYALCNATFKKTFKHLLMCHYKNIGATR

PDE3A (h) = target: T9, PDE3A (h) (Homo sapiens, UniProt Q14432); assay: Eurofins Safety Screen 44; assay type: biochemical; conditions: read-out: % Inhibition of Control Values
T9 construct: Eurofins (ran the panel)
T9 sequence (Q14432 whole entry): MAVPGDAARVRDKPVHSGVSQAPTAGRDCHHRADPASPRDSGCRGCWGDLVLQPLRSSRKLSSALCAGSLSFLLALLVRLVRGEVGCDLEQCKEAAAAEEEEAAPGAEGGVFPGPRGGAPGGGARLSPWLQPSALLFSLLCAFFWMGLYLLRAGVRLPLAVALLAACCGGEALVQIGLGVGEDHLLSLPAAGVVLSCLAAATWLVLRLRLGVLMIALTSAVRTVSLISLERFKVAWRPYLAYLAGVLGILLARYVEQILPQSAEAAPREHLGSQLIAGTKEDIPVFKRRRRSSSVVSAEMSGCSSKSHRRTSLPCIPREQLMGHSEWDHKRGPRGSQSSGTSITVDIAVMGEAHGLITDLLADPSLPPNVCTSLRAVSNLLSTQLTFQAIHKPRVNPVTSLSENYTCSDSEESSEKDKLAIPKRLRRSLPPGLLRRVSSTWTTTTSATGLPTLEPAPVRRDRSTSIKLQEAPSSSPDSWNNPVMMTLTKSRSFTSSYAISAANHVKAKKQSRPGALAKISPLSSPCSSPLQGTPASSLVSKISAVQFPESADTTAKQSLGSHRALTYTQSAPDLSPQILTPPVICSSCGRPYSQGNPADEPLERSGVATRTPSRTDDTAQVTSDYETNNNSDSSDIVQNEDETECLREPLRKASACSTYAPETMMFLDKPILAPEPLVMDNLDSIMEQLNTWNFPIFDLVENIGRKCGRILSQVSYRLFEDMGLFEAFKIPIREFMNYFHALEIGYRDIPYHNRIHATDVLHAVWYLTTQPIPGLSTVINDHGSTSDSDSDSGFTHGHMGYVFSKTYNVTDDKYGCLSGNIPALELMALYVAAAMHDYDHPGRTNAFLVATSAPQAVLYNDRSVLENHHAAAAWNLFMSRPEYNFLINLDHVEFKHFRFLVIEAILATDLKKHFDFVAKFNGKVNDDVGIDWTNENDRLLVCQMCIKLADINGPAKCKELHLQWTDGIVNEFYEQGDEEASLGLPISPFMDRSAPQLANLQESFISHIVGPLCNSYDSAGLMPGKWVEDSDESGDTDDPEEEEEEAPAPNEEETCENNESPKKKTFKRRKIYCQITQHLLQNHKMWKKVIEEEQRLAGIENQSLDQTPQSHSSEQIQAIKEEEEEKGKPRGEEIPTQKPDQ

[8] = target: T10, MAO-A (antagonist radioligand) (Rattus norvegicus, UniProt P21396); assay: Eurofins Safety Screen 44; assay type: binding; conditions: read-out: % Inhibition of Control Values
T10 construct: purchased ActivX Biosciences (KiNativ)
T10 sequence (P21396 whole entry): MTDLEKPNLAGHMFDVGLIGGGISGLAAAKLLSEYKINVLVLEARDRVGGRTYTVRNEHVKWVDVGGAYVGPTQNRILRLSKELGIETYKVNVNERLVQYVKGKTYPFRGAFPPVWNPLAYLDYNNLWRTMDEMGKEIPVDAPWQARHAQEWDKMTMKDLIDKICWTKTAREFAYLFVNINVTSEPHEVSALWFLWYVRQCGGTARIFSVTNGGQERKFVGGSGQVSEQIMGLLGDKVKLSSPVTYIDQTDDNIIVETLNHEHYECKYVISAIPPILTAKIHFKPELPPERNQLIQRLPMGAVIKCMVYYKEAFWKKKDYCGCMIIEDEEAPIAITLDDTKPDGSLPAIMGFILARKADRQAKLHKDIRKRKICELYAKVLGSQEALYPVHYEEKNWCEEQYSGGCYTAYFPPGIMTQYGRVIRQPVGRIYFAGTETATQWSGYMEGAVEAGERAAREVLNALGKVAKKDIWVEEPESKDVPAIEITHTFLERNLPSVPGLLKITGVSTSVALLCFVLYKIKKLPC

NCI-H2122 NSCLC CDX = NCI-H2122 NSCLC CDX model; assay type: in vivo; conditions: RMC-6272 10 mg/kg ip once weekly; sotorasib 100 mg/kg po qd; single agents or combination
Description: groups when mean tumor volume reached 400–600 mm 3. Tumor and plasma samples were collected for PK and PD analysis at indicated time points after a single dose of indicated […]
doses. Everolimus was formulated in v/v/v/, 30/5/65 Propylene glycol/Tween 80/H 2O.
NCI-H2122 xenograft studies. Female Balb/c nude mice (Beijing V.R Biotechnology Co. […]
per inoculation. When mean tumor volume reached between 150–200 mm 3, mice were […]
Transcutol/Solutol HS 15/H 2O. Sotorasib (AMG 510) was administered by oral gavage at 100 mg/kg daily and formulated in 2% (w/v) HPMC E-50, 0.5% Tween 80 in 50 mM sodium citrate […]
In vivo pharmacodynamics. Snap frozen tumors collected were homogenized with MSD complete lysis buffer (as prepared according to Meso Scale Discovery kit protocol) using PreCellys Bead Shaker (Bertin Instruments) according to manufacturer's protocol. Phospho-4E-BP1(Thr37/46) Whole Cell Lysate Kit (Meso Scale Discovery) was used to quantify phosphorylation of 4E-BP1 in the tumors according to manufacturer's protocol.
Expression and purification of FKBP12, FRB domain, and RHEB-GTPγS. DNA pET28

Chain of hERG potassium channel (Q12809 whole entry): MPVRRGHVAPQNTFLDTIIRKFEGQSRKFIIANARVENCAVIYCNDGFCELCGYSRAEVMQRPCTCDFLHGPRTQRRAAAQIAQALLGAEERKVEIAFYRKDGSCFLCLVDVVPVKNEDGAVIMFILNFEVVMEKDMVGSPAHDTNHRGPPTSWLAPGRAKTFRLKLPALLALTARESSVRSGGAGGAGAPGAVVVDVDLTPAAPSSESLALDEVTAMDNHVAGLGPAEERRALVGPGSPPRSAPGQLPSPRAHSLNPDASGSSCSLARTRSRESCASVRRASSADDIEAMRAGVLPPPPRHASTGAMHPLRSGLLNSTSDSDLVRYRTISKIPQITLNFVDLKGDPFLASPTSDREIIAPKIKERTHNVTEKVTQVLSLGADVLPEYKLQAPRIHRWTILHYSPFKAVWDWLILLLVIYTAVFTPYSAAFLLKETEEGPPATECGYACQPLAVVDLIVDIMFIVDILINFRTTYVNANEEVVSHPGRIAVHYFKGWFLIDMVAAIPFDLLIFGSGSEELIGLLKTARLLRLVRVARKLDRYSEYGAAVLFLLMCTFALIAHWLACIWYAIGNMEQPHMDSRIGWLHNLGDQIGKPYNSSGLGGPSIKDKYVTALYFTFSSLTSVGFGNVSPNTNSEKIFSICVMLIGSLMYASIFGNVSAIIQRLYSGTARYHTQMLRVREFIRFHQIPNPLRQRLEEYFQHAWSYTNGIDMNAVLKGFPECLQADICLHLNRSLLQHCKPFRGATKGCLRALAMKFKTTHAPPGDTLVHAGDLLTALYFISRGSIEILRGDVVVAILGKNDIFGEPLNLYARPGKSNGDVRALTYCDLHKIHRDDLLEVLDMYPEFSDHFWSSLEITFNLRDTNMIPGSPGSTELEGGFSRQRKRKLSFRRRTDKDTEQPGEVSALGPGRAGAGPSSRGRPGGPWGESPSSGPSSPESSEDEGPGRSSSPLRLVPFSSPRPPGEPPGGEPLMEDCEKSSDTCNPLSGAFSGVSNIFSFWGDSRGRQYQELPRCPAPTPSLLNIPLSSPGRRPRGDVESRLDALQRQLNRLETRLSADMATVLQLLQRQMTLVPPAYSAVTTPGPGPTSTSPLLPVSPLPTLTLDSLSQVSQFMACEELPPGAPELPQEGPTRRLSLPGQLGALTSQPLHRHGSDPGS

`CO[C@H]1C[C@@H]2CC[C@@H](C)[C@@](O)(O2)C(=O)C(=O)N2CCCC[C@H]2C(=O)O[C@H]([C@H](C)C[C@@H]2CC[C@@H](OC(=O)NCCOCCOCCOCCOCCOCCOCCOCCOCCC(=O)N3CCc4cc(Cn5nc(-c6ccc7oc(N)nc7c6)c6c(N)ncnc65)ccc4C3)[C@H](OC)C2)C[C@@H](O)[C@H](C)/C=C(\C)[C@@H](O)[C@@H](OC)C(=O)[C@H](C)C[C@H](C)/C=C/C=C/C=C/1C` [compound 38] gave an inhibition at 10 µM (hERG potassium channel) of -1.2%, an inhibition at 10 µM [1] of 0.6% and an inhibition at 10 µM (Lck kinase (h)) of 11.3%. It also gave an inhibition at 10 µM [2] of -4.5%, an inhibition at 10 µM [3] of -15.7% and an inhibition at 10 µM [4] of -28.9%. For the same molecule, the inhibition at 10 µM [5] was -1.5%, the inhibition at 10 µM [6] was 3% and the inhibition at 10 µM [7] was -3%. It also gave an inhibition at 10 µM (PDE3A (h)) of -47.2% and an inhibition at 10 µM [8] of 5.5%.
`CO[C@H]1C[C@@H]2CC[C@@H](C)[C@@](O)(O2)C(=O)C(=O)N2CCCC[C@H]2C(=O)O[C@H]([C@H](C)C[C@@H]2CC[C@@H](OC(=O)NCCOCCOCCOCCOCCOCCOCCOCCOCCC(=O)NCCS(=O)(=O)c3ccc(C(=O)N4CCOc5ccc(-c6ccc(N)nc6)cc5C4)c(C)c3F)[C@H](OC)C2)C[C@@H](O)[C@H](C)/C=C(\C)[C@@H](O)[C@@H](OC)C(=O)[C@H](C)C[C@H](C)/C=C/C=C/C=C/1C` [compound 40] was tested, and the “antitumor activity (tumor regressions) in NCI-H2122 CDX model” value (NCI-H2122 NSCLC CDX) was “Neither”.
